Data reported in article PMC6273978, “Synthesis and Pharmacological Evaluation of Novel Pleuromutilin Derivatives with Substituted Benzimidazole Moieties” (Molecules, 2016).
≈ marks a conversion by molar mass, not a printed value.

Experiments:
S. vitulinus = test: Oxford cup assay, zone of inhibition; format: cell-based, Staphylococcus vitulinus; conditions: Mammaliicoccus vitulinus
Procedure: (§1) The Oxford cup assays were carried out to evaluate the antibacterial activities against the above-mentioned six bacterial strains. The zones of inhibition for two concentrations (320 and 160 μg/mL) of the synthetic compounds and tiamulin fumarate were measured. The results of Oxford cup assay correspond with that obtained by agar dilution method (MICs) as a whole.
(§2) The procedure for Oxford cup assays was the same as that previously reported. Briefly, inoculums were prepared in 0.9% saline using McFarland standard and spread uniformly on nutrient agar plates. The 320 and 160 µg/mL of all the tested compounds were added individually into the Oxford cups that were placed at equal distances above the agar surfaces. The zone of inhibition for each concentration was measured after a 24–36 h incubation at 37 °C. The same procedure was repeated in triplicate.

S. haemolyticus = test: Oxford cup assay, zone of inhibition; format: cell-based; conditions: Staphylococcus haemolyticus
Procedure: as §1, §2

S. warneri = test: Oxford cup assay, zone of inhibition; format: cell-based; conditions: Staphylococcus warneri
Procedure: as §1, §2

E. coli = test: Oxford cup assay, zone of inhibition; format: cell-based; conditions: Escherichia coli
Procedure: as §1, §2

MRSA = test: Oxford cup assay, zone of inhibition; format: cell-based; conditions: Staphylococcus aureus
Procedure: as §1, §2

S. aureus = test: Oxford cup assay, zone of inhibition; format: cell-based; conditions: Staphylococcus aureus
Procedure: as §1, §2

[1] = test system: Staphylococcus vitulinus (S. vitulinus); test: MIC testing, agar dilution method; format: cell-based; conditions: Mammaliicoccus vitulinus, 36.5 °C, 24–48 h
Description: (§3) The synthesized pleuromutilin derivatives 3 and 4a–l, with tiamulin fumarate used a as reference drug, were screened for their in vitro antibacterial activity against Escherichia coli (E. coli), Staphylococcus aureus (S. aureus), Methicillin-resistant Staphylococcus aureus (MRSA), Staphylococcus vitulinus (S. vitulinus), Staphylococcus warneri (S. warneri), and Staphylococcus haemolyticus (S. haemolyticus). The antibacterial activities are reported in Table 1 as the minimum inhibitory concentration (MIC) using the agar dilution method. The MICs of the 13 new pleuromutilin derivatives in vitro against E. coli ranged from 10 to 80 μg/mL; against S. aureus, MRSA, S. vitulinus, S. warneri, and S. haemolyticus ranged from 0.156 to 40 μg/mL, respectively.
(§4) The MIC for the synthesized compounds (3 and 4a–l) and tiamulin fumarate used as a reference drug were determined using the agar dilution method according to the National Committee for Clinical Laboratory Standards (NCCLS). Tested compounds were dissolved in 25%–40% DMSO to a solution with a concentration of 1280 µg/mL, whereas tiamulin fumarate was directly dissolved in 10 mL of distilled water at the same concentration as the tested compounds. All the solutions were then diluted twofold with sterile water to provide 11 dilutions (final concentration is 0.625 µg/mL). A 2 mL volume of the 2-fold serial dilution of each test compound/drug was incorporated into 18 mL of hot Muellere-Hinton agar medium. Inoculums, including five Gram (+), S. aureus, MRSA, S. vitulinus, S. warneri, S. haemolyticus, and one Gram (−), E. coli were prepared from blood slants and adjusted to approximately 10^5–10^6 CFU/mL with sterile saline (0.90% NaCl). A 10 µL amount of bacterial suspension was spotted onto Muellere-Hinton agar plates containing serial dilutions of the compounds/drug. The plates were incubated at 36.5 °C for 24–48 h. The same procedure was repeated in triplicate.

[2] = test system: Staphylococcus haemolyticus (S. haemolyticus); test: MIC testing, agar dilution method; format: cell-based; conditions: 36.5 °C, 24–48 h
Description: as §3, §4

[3] = test system: Methicillin-resistant Staphylococcus aureus (MRSA); test: MIC testing, agar dilution method; format: cell-based; conditions: 36.5 °C, 24–48 h
Description: as §3, §4

[4] = test system: Escherichia coli (E. coli); test: MIC testing, agar dilution method; format: cell-based; conditions: 36.5 °C, 24–48 h
Description: as §3, §4

[5] = test system: Staphylococcus aureus (S. aureus); test: MIC testing, agar dilution method; format: cell-based; conditions: 36.5 °C, 24–48 h
Description: as §3, §4

[6] = test system: Staphylococcus warneri (S. warneri); test: MIC testing, agar dilution method; format: cell-based; conditions: 36.5 °C, 24–48 h
Description: as §3, §4

SMILES	zone of inhibition at 160 µg/mL (S. vitulinus)	zone of inhibition at 320 µg/mL (S. vitulinus)	zone of inhibition at 160 µg/mL (S. haemolyticus)	zone of inhibition at 320 µg/mL (S. haemolyticus)	zone of inhibition at 160 µg/mL (S. warneri)	zone of inhibition at 320 µg/mL (S. warneri)	zone of inhibition at 160 µg/mL (E. coli)	zone of inhibition at 320 µg/mL (E. coli)	zone of inhibition at 160 µg/mL (MRSA)	zone of inhibition at 320 µg/mL (MRSA)	zone of inhibition at 160 µg/mL (S. aureus)	zone of inhibition at 320 µg/mL (S. aureus)	MIC [1]	MIC [2]	MIC [3]	MIC [4]	MIC [5]	MIC [6]
C=C[C@]1(C)C[C@@H](OC(=O)CSc2nc3ccc(NC(=O)c4cccc(C)c4)cc3[nH]2)[C@]2(C)[C@H](C)CC[C@]3(CCC(=O)[C@H]32)[C@@H](C)[C@@H]1O [Compound 4e, 14-O-((3-Methylbenzamide-5-aminobenzimidazole-2-yl)thioacetyl) mutilin]	18.1 mm	20.3 mm	18.3 mm	20.8 mm	20.8 mm	21.5 mm	0 mm	0 mm	25.6 mm	27.8 mm	17.9 mm	19.4 mm	40 µg/mL (≈ 62.1 µM)	40 µg/mL (≈ 62.1 µM)	40 µg/mL (≈ 62.1 µM)	80 µg/mL (≈ 124 µM)	40 µg/mL (≈ 62.1 µM)	40 µg/mL (≈ 62.1 µM)
C=C[C@]1(C)C[C@@H](OC(=O)CSc2nc3ccc(NC(=O)c4ccc(C)cc4)cc3[nH]2)[C@]2(C)[C@H](C)CC[C@]3(CCC(=O)[C@H]32)[C@@H](C)[C@@H]1O [Compound 4f, 14-O-((4-Methylbenzamide-5-aminobenzimidazole-2-yl)thioacetyl) mutilin]	14 mm	15.1 mm	16.2 mm	20.7 mm	22.9 mm	22.9 mm	0 mm	8.64 mm	14.1 mm	17.3 mm	16.7 mm	17.8 mm	40 µg/mL (≈ 62.1 µM)	40 µg/mL (≈ 62.1 µM)	40 µg/mL (≈ 62.1 µM)	80 µg/mL (≈ 124 µM)	40 µg/mL (≈ 62.1 µM)	20 µg/mL (≈ 31.1 µM)
C=C[C@]1(C)C[C@@H](OC(=O)CSc2nc3ccc(NC(=O)c4ccccc4OC)cc3[nH]2)[C@]2(C)[C@H](C)CC[C@]3(CCC(=O)[C@H]32)[C@@H](C)[C@@H]1O [Compound 4g, 14-O-((2-Methoxybenzamide-5-aminobenzimidazole-2-yl)thioacetyl) mutilin]	16.2 mm	18 mm	24.3 mm	25.6 mm	18.5 mm	20.1 mm	0 mm	9.38 mm	19.1 mm	21.5 mm	13.7 mm	18.3 mm	40 µg/mL (≈ 60.6 µM)	10 µg/mL (≈ 15.2 µM)	40 µg/mL (≈ 60.6 µM)	80 µg/mL (≈ 121 µM)	40 µg/mL (≈ 60.6 µM)	40 µg/mL (≈ 60.6 µM)
C=C[C@]1(C)C[C@@H](OC(=O)CSc2nc3ccc(NC(=O)c4cccc(OC)c4)cc3[nH]2)[C@]2(C)[C@H](C)CC[C@]3(CCC(=O)[C@H]32)[C@@H](C)[C@@H]1O [Compound 4h, 14-O-((3-Methoxybenzamide-5-aminobenzimidazole-2-yl)thioacetyl) mutilin]	19.8 mm	21.7 mm	25.4 mm	28.4 mm	17.9 mm	19.8 mm	15.3 mm	18 mm	16.3 mm	19.7 mm	15.9 mm	18.7 mm	40 µg/mL (≈ 60.6 µM)	10 µg/mL (≈ 15.2 µM)	40 µg/mL (≈ 60.6 µM)	40 µg/mL (≈ 60.6 µM)	40 µg/mL (≈ 60.6 µM)	40 µg/mL (≈ 60.6 µM)
C=C[C@]1(C)C[C@@H](OC(=O)CSc2nc3ccc(NC(=O)c4ccc(OC)cc4)cc3[nH]2)[C@]2(C)[C@H](C)CC[C@]3(CCC(=O)[C@H]32)[C@@H](C)[C@@H]1O [Compound 4i, 14-O-((4-Methoxybenzamide-5-aminobenzimidazole-2-yl)thioacetyl) mutilin]	17.6 mm	18.2 mm	23 mm	32.9 mm	18.6 mm	21.8 mm	14.2 mm	17.7 mm	21.3 mm	25.7 mm	18.6 mm	21.5 mm	40 µg/mL (≈ 60.6 µM)	5 µg/mL (≈ 7.58 µM)	20 µg/mL (≈ 30.3 µM)	40 µg/mL (≈ 60.6 µM)	40 µg/mL (≈ 60.6 µM)	20 µg/mL (≈ 30.3 µM)
C=C[C@]1(C)C[C@@H](OC(=O)CSc2nc3ccc(NC(=O)C4CCCCC4)cc3[nH]2)[C@]2(C)[C@H](C)CC[C@]3(CCC(=O)[C@H]32)[C@@H](C)[C@@H]1O [Compound 4j, 14-O-((Cyclohexanecarboxamide-5-aminobenzimidazole-2-yl)thioacetyl) mutilin]	26 mm	29.1 mm	23 mm	26.4 mm	24.7 mm	27.7 mm	17.4 mm	19.8 mm	28 mm	31.9 mm	15.4 mm	27.2 mm	1.25 µg/mL (≈ 1.97 µM)	10 µg/mL (≈ 15.7 µM)	1.25 µg/mL (≈ 1.97 µM)	20 µg/mL (≈ 31.5 µM)	5 µg/mL (≈ 7.86 µM)	2.5 µg/mL (≈ 3.93 µM)
C=C[C@]1(C)C[C@@H](OC(=O)CSc2nc3ccc(NC(=O)c4ccc[nH]4)cc3[nH]2)[C@]2(C)[C@H](C)CC[C@]3(CCC(=O)[C@H]32)[C@@H](C)[C@@H]1O [Compound 4k, 14-O-(((1H-Pyrrole-2-carboxamide)-5-aminobenzimidazole-2-yl)thioacetyl) mutilin]	24.7 mm	27 mm	25.5 mm	29.9 mm	21.2 mm	25.5 mm	18.5 mm	20.1 mm	26.5 mm	30.7 mm	26.6 mm	28.9 mm	1.25 µg/mL (≈ 2.02 µM)	1.25 µg/mL (≈ 2.02 µM)	1.25 µg/mL (≈ 2.02 µM)	20 µg/mL (≈ 32.3 µM)	1.25 µg/mL (≈ 2.02 µM)	5 µg/mL (≈ 8.08 µM)
C=C[C@]1(C)C[C@@H](OC(=O)CSc2nc3ccc(NC(=O)c4cc5ccccc5[nH]4)cc3[nH]2)[C@]2(C)[C@H](C)CC[C@]3(CCC(=O)[C@H]32)[C@@H](C)[C@@H]1O [Compound 4l, 14-O-(((1H-Indole-2-carboxamide)-5-aminobenzimidazole-2-yl)thioacetyl) mutilin]	22.1 mm	26.5 mm	20.8 mm	25.1 mm	25.4 mm	29.6 mm	17.4 mm	20.5 mm	19.8 mm	21.6 mm	20.9 mm	24.7 mm	5 µg/mL (≈ 7.48 µM)	10 µg/mL (≈ 15 µM)	10 µg/mL (≈ 15 µM)	20 µg/mL (≈ 29.9 µM)	10 µg/mL (≈ 15 µM)	2.5 µg/mL (≈ 3.74 µM)
